Where two headings read alike, the source gives them in different places.
Legend:
Assay in all cases: microbe, parasite or virus in culture
Type in all cases: cell-based, Mycobacterium tuberculosis
[1] = test system: CDC1551(rv2390c′::GFP) reporter Mtb strain, response to high [Cl−]; details: for activity at 10 µM / activity at 20 µM / IC50: Mycobacterium tuberculosis; for activity at 10 µM / activity at 20 µM: 144 h; for activity at 20 µM: read-out: rv2390c'::GFP validation assay NPA% at 20 µM compound; for IC50: read-out: ShuminTan.MtbChloride.Validation: IC50; for ShuminTan.MtbChloride.Primary: NPI%: primary screen, Sheet2
[2] = test system: CDC1551(rv1405c′::GFP) reporter Mtb strain; details: for IC50 / activity at 10 µM / activity at 20 µM: Mycobacterium tuberculosis; for IC50: read-out: ShuminTan.MtbChloride.Secondary: IC50; for activity at 10 µM: read-out: rv1405c'::GFP secondary assay NPA% at 10 µM compound; for activity at 20 µM: read-out: rv1405c'::GFP secondary assay NPA% at 20 µM compound
[3] = test system: Mtb growth in J774 murine macrophage-like cells; details: for inhibition at 20 µM / IC50 / inhibition at 10 µM: Mycobacterium tuberculosis; for IC50: J774 dose response 0.039-20 µM, read-out: ShuminTan.Mtb.Validation.Macrophage: IC50; for inhibition at 10 µM: read-out: J774 tertiary assay % inhibition compared to Rif at 10 µM compound; for NPI (Mtb growth in J774 cells), average: Fig 1F
[4] = pH 6.4, […], DMSO positive control = 100%, read-out: Primary screen rv2390c'::GFP NPA%
[5] = 10 µM, pH 6.4, 250 mM NaCl, 6 days, read-out: rv2390c'::GFP validation assay NPA% at 10 µM compound
[6] = J774, read-out: %inhibition compared to Rif in J774 at 20 uM
[7] = J774, 144 h, read-out: J774 tertiary assay % inhibition compared to Rif at 20 µM compound

Structure (SMILES) | activity at 10 µM [1, 4] [%] | activity at 10 µM [1, 5] [%] | activity at 20 µM ([1]; pH 6.4, 250 mM NaCl, 6 days) [%] | activity at 10 µM [2] [%] | activity at 20 µM [2] [%] | inhibition at 10 µM ([3]; J774, 144 h) [%] | inhibition at 20 µM [3, 7] [%] | also measured
Cc1ccc(NS(=O)(=O)c2ccc(C)c(F)c2)c(C(=O)O)c1 [RU-0273440, CC1=CC(C(O)=O)=C(NS(=O)(=O)C2=CC(F)=C(C)C=C2)C=C1] | 49.3 | 60.2 ± 7.2 | 37.7 ± 5.2 | 33.8 ± 5.6 | 23.3 ± 4.7 | – | – | validation NPI at 10 uM [1]: 60.2; validation NPI at 20 uM [1]: 37.8; IC50 [1]: > 20 µM; ShuminTan.MtbChloride.Primary: NPI% [1]: 49.3142%; rv1405c assay NPI at 10 uM [2]: 34; rv1405c assay NPI at 20 uM [2]: 23.8; IC50 [2]: < 0.0391 µM; inhibition at 20 µM [3, 6]: 18.3%; IC50 [3]: > 20 µM
CN(CC(O)c1ccccc1Cl)C1CCc2ccccc21 (stereo not drawn) [RU-0271187, CN(CC(O)C1=C(Cl)C=CC=C1)C1CCC2=C1C=CC=C2] | 166 | 138 ± 7.4 | 207 ± 9.5 | 228 ± 8.7 | 461 ± 7.9 | 4.8 ± 0.1 | 36.1 ± 0.1 | –
O=C(c1cnn2ccccc12)N1CCCC(CCc2cccc(C(F)(F)F)c2)C1 (stereo not drawn) [C5 analog, FC(F)(F)C1=CC=CC(CCC2CCCN(C2)C(=O)C2=C3C=CC=CN3N=C2)=C1] | 167 | 112 ± 12 | 156 ± 9.9 | 110 ± 7.2 | 150 ± 12 | 21.4 ± 7.7 | 48.2 ± 1.5 | NPI (Mtb growth in J774 cells), average ([3]; 0.078125 µM, 5 µM rifampicin = 100% inhibition): -4.805%; NPI (Mtb growth in J774 cells), average ([3]; 0.15625 µM): -8.165%; NPI (Mtb growth in J774 cells), average ([3]; 0.3125 µM): -7.245%; NPI (Mtb growth in J774 cells), average ([3]; 0.625 µM): 7.86%; NPI (Mtb growth in J774 cells), average ([3]; 1.25 µM): -0.385%; NPI (Mtb growth in J774 cells), average ([3]; 2.5 µM): 11.205%; NPI (Mtb growth in J774 cells), average ([3]; 5 µM): 9.965%; NPI (Mtb growth in J774 cells), average ([3]; 10 µM): 21.35%; NPI (Mtb growth in J774 cells), average ([3]; 20 µM): 48.15%
Cc1c(Cl)cccc1S(=O)(=O)Nc1nn(C(C)(C)C)cc1C#N [RU-0208737, CC1=C(C=CC=C1Cl)S(=O)(=O)NC1=NN(C=C1C#N)C(C)(C)C] | 47.8 | 53.8 ± 2.8 | 40.2 ± 8.5 | 50.8 ± 1.7 | 84.4 ± 13.1 | 9.6 ± 0.7 | 20.9 ± 6.9 | –
CCOc1ccc(OCCN(CC)CC(O)c2ccc(C)cc2)cc1 (stereo not drawn) [RU-0211290, CCOC1=CC=C(OCCN(CC)CC(O)C2=CC=C(C)C=C2)C=C1] | 152 | 111 ± 8.9 | 145 ± 8.4 | 102 ± 6.3 | 128 ± 6 | – | – | validation NPI at 10 uM [1]: 111; validation NPI at 20 uM [1]: 146; IC50 [1]: < 0.0391 µM; ShuminTan.MtbChloride.Primary: NPI% [1]: 152.309%; rv1405c assay NPI at 10 uM [2]: 103; rv1405c assay NPI at 20 uM [2]: 129; IC50 [2]: < 0.0391 µM; inhibition at 20 µM [3, 6]: 17.1%; IC50 [3]: > 20 µM
O=C(NC[C@H]1C[C@H]2C=C[C@H]1C21CC1)c1cnc(N2CCOCC2)nc1 [RU-0184528, O=C(NC[C@H]1C[C@H]2C=C[C@H]1C21CC1)C1=CN=C(N=C1)N1CCOCC1] | 158 | 111 ± 2.1 | 134 ± 13.6 | 104 ± 21.9 | 136 ± 11.8 | – | – | –
CCOc1cc(F)ccc1NC(=O)Nc1cccc(C#N)c1 [RU-0273629, CCOC1=C(NC(=O)NC2=CC(=CC=C2)C#N)C=CC(F)=C1] | 170 | 203 ± 16.4 | 318 ± 21.4 | 188 ± 18 | 540 ± 65.6 | – | – | –
O=C(c1nccc2ccccc12)N1CCN(CC2CCCC2)CC1 [RU-0257267, O=C(N1CCN(CC2CCCC2)CC1)C1=C2C=CC=CC2=CC=N1] | 199 | 140.3 ± 0.6 | 254 ± 8.7 | 267 ± 23 | 822 ± 58.1 | – | – | –
CCOC(=O)Cc1cc(=O)n2nc(C(F)(F)F)c(-c3ccccc3)c2[nH]1 [RU-0171667, CCOC(=O)CC1=CC(=O)N2N=C(C(=C2N1)C1=CC=CC=C1)C(F)(F)F] | 163 | 148 ± 28.3 | 178 ± 17.6 | 84.5 ± 11.2 | 94.8 ± 4 | – | – | –

— publication PMC8351955, “Targeting Mycobacterium tuberculosis response to environmental cues for the development of effective antitubercular drugs” (PLoS Biology, 2021)
